The source of these data is patent US12371430B2, “5-morpholin-4-yl-pyrazolo[4,3-b]pyridine derivatives” (Merck Patent GmbH, priority 2018, dated 2025).

SMILES strings stand for the structures.

For one experiment, the target named is ATR/ATRIP (Homo sapiens (Human), UniProt Q13535). The experiment can be described thus: ATR/ATRIP kinase assay (TR-FRET, p53 Ser15 phosphorylation). It counts as biochemical. The following applies: 0.5 μM ATP, 50 nM p53. How it is done:
ATR/ATRIP Kinase Assay—Measurement of ATR/ATRIP Inhibition
The IC50 value was determined by an ATR/ATRIP enzymatic assay. The assay comprises two steps: the enzymatic reaction and the detection step. First, a mixture of ATR/ATRIP protein (Ataxia Telangiectasia and Rad3-related protein/ATR interacting protein), the compound in question at different concentrations, p53 as substrate protein and adenosine triphosphate (ATP) are incubated in assay buffer. ATR phosporylates p53 at Ser15 and other residues. The amount of phosphorylated p53 is then detected using specific antibodies and the TR-FRET assay technology.
In detail: The ATR/ATRIP enzymatic assay is performed as a TR-FRET-(HTRF™, Cisbio Bioassays) based 384-well assay. In a first step, purified human recombinant ATR/ATRIP (human ATR, full length, GenBank ID: NM_001184.3, and human ATRIP, full length, GenBank ID AF451323.1, co-expressed in a mammalian cell line) is incubated in assay buffer for 15 minutes at 22° C. with test compound at different concentrations or without test compound (as a negative control). The assay buffer contains 25 mM HEPES pH 8.0, 10 mM Mg(CH3COO)2, 1 mM MnCl2, 0.1% BSA, 0.01% Brij® 35, and 5 mM dithiothreitol (DTT). An Echo 555 (Labcyte) is used for dispensing of compound solutions. Then, in a second step, purified human recombinant cmyc-tagged p53 (human p53, full length, GenBank ID: BC003596, expressed in Sf21 insect cells) and ATP are added and the reaction mixture is incubated for 25-35 minutes, typically 25 minutes, at 22° C. The pharmacologically relevant assay volume is 5 μl. The final concentrations in the assay during incubation of the reaction mixture are 0.3-0.5 nM, typically 0.3 nM, ATR/ATRIP, 50 nM p53, and 0.5 μM ATP. The enzymatic reaction is stopped by the addition of EDTA. The generation of phosphorylated p53 as a result of the ATR mediated reaction in the presence of ATP is detected by using specific antibodies [labeled with the fluorophores europium (Eu) as donor and d2 as acceptor (Cisbio Bioassays)] enabling FRET. For this purpose, 2 μl of antibody-containing stop solution (12.5 mM HEPES pH 8.0, 125 mM EDTA, 30 mM sodium chloride, 300 mM potassium fluoride, 0.006% Tween-20, 0.005% Brij® 35, 0.21 nM anti-phospho-p53(Ser15)-Eu antibody, 15 nM anti-cmyc-d2 antibody) are added to the reaction mixture. Following signal development for 2 h the plates are analyzed in an EnVision (PerkinElmer) microplate reader using the TRF mode with laser excitation. Upon excitation of the donor europium at 340 nm the emitted fluorescence light of the acceptor d2 at 665 nm as well as from the donor Eu at 615 nm are measured. The amount of phosphorylated p53 is directly proportional to the ratio of the amounts of emitted light i.e. the ratio of the relative fluorescence units (rfu) at 665 nm and 615 nm. Data are processed employing the Genedata Screener software. In particular, IC50 values are determined in the usual manner by fitting a dose-response curve to the data points using nonlinear regression analysis. • IC50=half maximal inhibitory concentration • ATP=Adenosine triphosphate • TR-FRET=Time-Resolved Fluorescence Resonance Energy Transfer • HTRF®=Homogeneous Time Resolved Fluorescence • HEPES=2-(4-(2-Hydroxyethyl)-1-piperazinyl)-ethanesulfonic acid • Mg(CH3COO)2=Magnesium acetate • MnCl2=Manganese(II)-chloride • BSA=Bovine Serum Albumin • EDTA=Ethylendiamine Tetraacetate • TRF=Time Resolved Fluorescence pCHK1 Cellular Assay
Background: TR-FRET usually uses a lanthanide donor and a delayed reading to cut background.

The test system of experiment [1] is phosphorylation of Chk1 (Ser 345) in HT29 colon adenocarcinoma cells. The experiment can be described thus: pCHK1 cellular assay. Type of experiment: cell-based. The conditions noted are these: Homo sapiens, HT-29, hydroxyurea 3 mM, 4 h. An excerpt: Chk1 kinase acts downstream of ATR and has a key role in DNA damage checkpoint control. Activation of Chk1 involves phosphorylation of Ser317 and Ser345 (regarded as the preferential target for phosphorylation/activation by ATR) and occurs in response to blocked DNA replication and certain forms of genotoxic stress. Phosphorylation at Ser 345 serves to localize Chk1 to the nucleus following checkpoint activation.
This assay measures a decrease in phosphorylation of Chk1 (Ser 345) in HT29 colon adenocarcinoma cells following treatment with compound and hydroxyurea (which promotes fork stalling because of dNTP depletion) and using an immunocytochemical procedure and high content imaging.
For the assay HT29 cells are plated in culture medium (DMEM high Glucose (no phenol red), 2 mM Glutamax, 1 mM Pyruvate, 10% FCS into Greiner 384 well plates, black, μclear #781090 (2500 cells/well/30 μl) and incubated for at least 20 hours at 37° C., 10% CO2 and 90% rH. Diluted test compounds (1 nM-30 μM final) and hydroxyurea (3 mM final) are added simultaneously and cells are incubated for 4 h at 37° C. After fixation/prmeabilisation with 100% MeOH (−20° C. cold) and permeabilisation with 0.2% Triton X-100 a complete immunocytochemical procedure is performed using a specific anti-pChk1 antibody (Cell Signaling, #2348BF) and fluorescently labelled secondary antibody (Alexa Fluor® 488 goat anti-rabbit F(ab′)2 fragment, Invitrogen A11070) and parallel nuclear staining for cell counting.
The nuclear localised pChk1 signal is detected on an ImageXpress Ultra confocal high content reader and reported as % positive cells (nuclei).

ATR/ATRIP, sequence (Q13535 whole entry): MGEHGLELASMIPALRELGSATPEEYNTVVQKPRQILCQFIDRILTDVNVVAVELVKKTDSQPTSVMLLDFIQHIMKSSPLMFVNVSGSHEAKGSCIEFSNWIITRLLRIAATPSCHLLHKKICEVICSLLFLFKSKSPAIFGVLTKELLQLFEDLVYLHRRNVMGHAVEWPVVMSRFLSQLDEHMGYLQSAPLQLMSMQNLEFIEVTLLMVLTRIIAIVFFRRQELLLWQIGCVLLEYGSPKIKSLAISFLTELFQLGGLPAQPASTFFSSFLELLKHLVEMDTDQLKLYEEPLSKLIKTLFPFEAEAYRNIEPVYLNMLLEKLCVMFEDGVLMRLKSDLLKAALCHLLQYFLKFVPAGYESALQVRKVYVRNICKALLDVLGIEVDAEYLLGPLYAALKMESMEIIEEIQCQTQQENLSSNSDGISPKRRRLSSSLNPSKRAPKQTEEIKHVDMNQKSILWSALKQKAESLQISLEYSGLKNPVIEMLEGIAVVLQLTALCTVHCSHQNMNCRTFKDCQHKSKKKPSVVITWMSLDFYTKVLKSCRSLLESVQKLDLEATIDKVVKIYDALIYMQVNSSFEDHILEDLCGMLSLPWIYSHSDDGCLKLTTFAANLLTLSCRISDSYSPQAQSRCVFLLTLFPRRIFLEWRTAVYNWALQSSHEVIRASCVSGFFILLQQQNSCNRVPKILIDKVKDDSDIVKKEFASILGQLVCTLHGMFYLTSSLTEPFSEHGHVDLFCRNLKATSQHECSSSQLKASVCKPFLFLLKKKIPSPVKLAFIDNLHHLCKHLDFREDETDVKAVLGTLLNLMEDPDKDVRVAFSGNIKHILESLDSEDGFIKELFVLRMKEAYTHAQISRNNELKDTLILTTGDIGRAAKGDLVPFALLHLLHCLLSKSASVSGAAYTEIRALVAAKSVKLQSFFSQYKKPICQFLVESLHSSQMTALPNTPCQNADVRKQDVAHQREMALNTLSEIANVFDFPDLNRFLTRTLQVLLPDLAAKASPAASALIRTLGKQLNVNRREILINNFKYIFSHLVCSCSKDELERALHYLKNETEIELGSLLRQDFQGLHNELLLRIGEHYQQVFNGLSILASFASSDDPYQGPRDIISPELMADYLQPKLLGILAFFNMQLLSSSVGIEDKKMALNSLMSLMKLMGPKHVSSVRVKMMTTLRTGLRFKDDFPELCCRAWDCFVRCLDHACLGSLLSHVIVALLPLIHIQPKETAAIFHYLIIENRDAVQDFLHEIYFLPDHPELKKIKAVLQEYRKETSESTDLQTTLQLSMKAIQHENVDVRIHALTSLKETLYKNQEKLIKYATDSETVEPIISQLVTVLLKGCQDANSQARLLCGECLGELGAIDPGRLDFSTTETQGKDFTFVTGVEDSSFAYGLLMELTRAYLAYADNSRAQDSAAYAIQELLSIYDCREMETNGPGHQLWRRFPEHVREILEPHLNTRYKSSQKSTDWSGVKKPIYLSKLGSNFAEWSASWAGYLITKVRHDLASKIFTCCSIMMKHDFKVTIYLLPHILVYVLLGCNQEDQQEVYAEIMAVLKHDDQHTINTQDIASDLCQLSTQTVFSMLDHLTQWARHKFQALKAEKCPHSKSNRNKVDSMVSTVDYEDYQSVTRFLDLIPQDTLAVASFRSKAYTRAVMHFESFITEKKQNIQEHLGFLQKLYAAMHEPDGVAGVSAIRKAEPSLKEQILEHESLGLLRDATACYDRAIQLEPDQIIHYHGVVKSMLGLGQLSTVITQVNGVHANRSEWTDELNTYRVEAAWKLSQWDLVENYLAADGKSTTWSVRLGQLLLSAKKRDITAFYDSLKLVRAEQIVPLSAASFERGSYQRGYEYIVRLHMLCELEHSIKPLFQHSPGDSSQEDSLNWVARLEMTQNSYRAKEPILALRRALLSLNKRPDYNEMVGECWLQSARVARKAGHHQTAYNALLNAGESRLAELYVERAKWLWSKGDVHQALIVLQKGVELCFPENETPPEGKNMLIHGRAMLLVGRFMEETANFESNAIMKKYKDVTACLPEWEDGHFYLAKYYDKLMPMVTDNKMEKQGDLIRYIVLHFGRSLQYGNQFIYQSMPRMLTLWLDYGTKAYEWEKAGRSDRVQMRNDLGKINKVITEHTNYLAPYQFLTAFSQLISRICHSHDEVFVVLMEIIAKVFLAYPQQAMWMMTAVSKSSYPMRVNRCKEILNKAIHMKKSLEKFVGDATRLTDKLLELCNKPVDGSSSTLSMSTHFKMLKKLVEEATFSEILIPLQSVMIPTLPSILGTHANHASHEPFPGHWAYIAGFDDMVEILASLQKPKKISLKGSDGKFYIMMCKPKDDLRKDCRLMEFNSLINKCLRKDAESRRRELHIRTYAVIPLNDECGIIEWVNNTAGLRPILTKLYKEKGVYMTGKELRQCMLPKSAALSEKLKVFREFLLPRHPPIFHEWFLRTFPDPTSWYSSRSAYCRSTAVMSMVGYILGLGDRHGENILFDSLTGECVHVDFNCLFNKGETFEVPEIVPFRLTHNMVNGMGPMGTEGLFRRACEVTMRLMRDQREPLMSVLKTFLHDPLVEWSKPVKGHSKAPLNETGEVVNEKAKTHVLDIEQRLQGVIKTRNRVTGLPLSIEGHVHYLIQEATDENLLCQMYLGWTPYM
ATR/ATRIP, sequence (Q8WXE1 whole entry partner): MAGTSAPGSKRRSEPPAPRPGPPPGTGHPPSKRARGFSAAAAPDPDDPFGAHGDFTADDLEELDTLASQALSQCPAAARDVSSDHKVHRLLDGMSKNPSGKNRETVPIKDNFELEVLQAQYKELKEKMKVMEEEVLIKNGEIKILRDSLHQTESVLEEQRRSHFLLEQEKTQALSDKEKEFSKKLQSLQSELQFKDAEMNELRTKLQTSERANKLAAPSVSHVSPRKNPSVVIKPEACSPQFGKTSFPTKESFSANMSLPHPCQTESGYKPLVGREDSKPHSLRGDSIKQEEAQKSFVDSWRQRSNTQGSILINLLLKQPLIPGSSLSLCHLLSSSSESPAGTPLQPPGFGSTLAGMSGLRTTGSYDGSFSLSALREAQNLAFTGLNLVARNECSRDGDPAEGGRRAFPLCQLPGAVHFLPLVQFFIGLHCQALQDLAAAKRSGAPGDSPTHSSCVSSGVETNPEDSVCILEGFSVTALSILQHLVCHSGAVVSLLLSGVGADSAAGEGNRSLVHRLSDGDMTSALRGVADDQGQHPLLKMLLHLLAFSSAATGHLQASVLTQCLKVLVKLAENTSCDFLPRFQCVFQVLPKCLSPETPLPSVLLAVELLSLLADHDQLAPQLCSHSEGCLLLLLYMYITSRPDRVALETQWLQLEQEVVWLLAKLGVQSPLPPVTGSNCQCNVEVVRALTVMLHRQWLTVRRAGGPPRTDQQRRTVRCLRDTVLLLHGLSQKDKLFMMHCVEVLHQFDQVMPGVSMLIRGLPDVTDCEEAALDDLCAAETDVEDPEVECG

As a reminder, the IC50 is the midpoint of a concentration-inhibition curve. A lower IC50 goes with inhibition by little substance. Regarding `C[C@@H]1COCCN1c1cc(C(=O)N(C)C)c2[nH]nc(-c3cc[nH]n3)c2n1` [Compound 27, 5-((R)-3-Methyl-morpholin-4-yl)-3-(1H-pyrazol-3-yl)-1H-pyrazolo[4,3-b]pyridine-7-carboxylic acid dimethylamide], the figures for the IC50 (at ATR/ATRIP; in experiment [1]) were 10 nM and 100 to 1000 nM, respectively.
On to `CC(C)n1nc(-c2cc[nH]n2)c2nc(N3CCOC[C@H]3C)ccc21` [Compound 73, (3R)-3-Methyl-4-[1-(propan-2-yl)-3-(1H-pyrazol-3-yl)-1H-pyrazolo[4,3-b]pyridin-5-yl]morpholine], for which the IC50 at ATR/ATRIP was 28 nM; in experiment [1], 100 to 1000 nM.
Consider `C[C@@H]1COCCN1c1cc(-c2ccc(S(C)(=N)=O)cc2)c2c(n1)c(-c1cc[nH]n1)nn2C` (stereo partly drawn) [Compound 6, Imino(methyl)(4-{1-methyl-5-[(3R)-3-methylmorpholin-4-yl]-3-(1H-pyrazol-3-yl)-1H-pyrazolo[4,3-b]pyridin-7-yl}phenyl)-lambda6-sulfanone], for which the IC50 against ATR/ATRIP was 8.9 nM; in experiment [1], 100 to 1000 nM.
For `C[C@@H]1COCCN1c1cc(C(N)=O)c2c(n1)c(-c1cc[nH]n1)nn2C` [Compound 32, 1-Methyl-5-((R)-3-methyl-morpholin-4-yl)-3-(1H-pyrazol-3-yl)-1H-pyrazolo[4,3-b]pyridine-7-carboxylic acid amide], in that order: 20 nM and 1000 to 10000 nM.
With `Cc1ccnc(C)c1-c1cc(N2CCOC[C@H]2C)nc2c(-c3cc[nH]n3)nn(C)c12` [Compound 22, 7-(2,4-Dimethyl-pyridin-3-yl)-1-methyl-5-((R)-3-methyl-morpholin-4-yl)-3-(1H-pyrazol-3-yl)-1H-pyrazolo[4,3-b]pyridine], the IC50 against ATR/ATRIP was 3.3 nM; in experiment [1], 100 to 1000 nM.
Consider `Cc1nc([S@@+](C)[O-])ccc1-c1cc(N2CCOC[C@H]2C)nc2c(-c3cc[nH]n3)nn(C)c12` [Compound 10, (3R)-4-(7-{6-[(R)-Methanesulfinyl]-2-methylpyridin-3-yl}-1-methyl-3-(1H-pyrazol-3-yl)-1H-pyrazolo[4,3-b]pyridin-5-yl)-3-methylmorpholine], for which the IC50 was 1.9 nM at ATR/ATRIP and 10 to 100 nM in experiment [1].
For the compound `Cc1cnccc1-c1cc(N2CCOC[C@H]2C)nc2c(-c3cc[nH]n3)nn(C)c12` [Compound 23, 1-Methyl-5-((R)-3-methyl-morpholin-4-yl)-7-(3-methyl-pyridin-4-yl)-3-(1H-pyrazol-3-yl)-1H-pyrazolo[4,3-b]pyridine], the IC50 at ATR/ATRIP is 1 nM; in experiment [1] it was 10 to 100 nM.
Taken in the same sequence, the figures for `C[C@@H]1COCCN1c1ccc2c(n1)c(-c1cc[nH]n1)nn2CCc1ccncc1` [Compound 77, (3R)-3-Methyl-4-[3-(1H-pyrazol-3-yl)-1-[2-(pyridin-4-yl)ethyl]-1H-pyrazolo[4,3-b]pyridin-5-yl]morpholine] were 58 nM and 1000 to 10000 nM.
Taken in the same sequence, the figures for `C[C@@H]1COCCN1c1cc(C2=CCS(=O)(=O)CC2)c2c(n1)c(-c1ccn[nH]1)nn2C` [Compound 81, 4-[1-Methyl-5-[(3R)-3-methylmorpholin-4-yl]-3-(1H-pyrazol-5-yl)-1H-pyrazolo[4,3-b]pyridin-7-yl]-3,6-dihydro-2H-1lambda6-thiopyran-1,1-dione] were 3 nM and 100 to 1000 nM.
For `Cc1ncncc1-c1cc(N2CCOC[C@H]2C)nc2c(-c3cc[nH]n3)nn(C)c12` [Compound 87, (3R)-3-Methyl-4-[1-methyl-7-(4-methylpyrimidin-5-yl)-3-(1H-pyrazol-3-yl)-1H-pyrazolo[4,3-b]pyridin-5-yl]morpholine], in that order: 0.4 nM and 10 to 100 nM.
On to `CC(C)n1nc(-c2cc[nH]n2)c2nc(N3CCOC[C@H]3C)cc(-c3ccc(S(C)(=O)=O)cc3)c21` [Compound 41, (3R)-4-[7-(4-Methanesulfonylphenyl)-1-(propan-2-yl)-3-(1H-pyrazol-3-yl)-1H-pyrazolo[4,3-b]pyridin-5-yl]-3-methylmorpholine], for which the IC50 against ATR/ATRIP was 1.3 nM; in experiment [1], 10 to 100 nM.
For `C[C@@H]1COCCN1c1cc(-c2ccc(CO)cc2)c2c(n1)c(-c1cc[nH]n1)nn2C` [Compound 52, (4-{1-Methyl-5-[(3R)-3-methylmorpholin-4-yl]-3-(1H-pyrazol-3-yl)-1H-pyrazolo[4,3-b]pyridin-7-yl}phenyl)methanol], in that order: 1.4 nM and 10 to 100 nM.
Taken in the same sequence, the figures for `C[C@@H]1COCCN1c1cc(CO)c2c(n1)c(-c1cc[nH]n1)nn2C` [Compound 24, [1-Methyl-5-((R)-3-methyl-morpholin-4-yl)-3-(1H-pyrazol-3-yl)-1H-pyrazolo[4,3-b]pyridin-7-yl]-methanol] were 28 nM and 100 to 1000 nM.
For `C[C@@H]1COCCN1c1ccc2c(n1)c(-c1cc[nH]n1)nn2-c1cccc(C#N)c1` [Compound 53, 3-[5-((3R)-3-Methyl-morpholin-4-yl)-3-(1H-pyrazol-3-yl)-1H-pyrazolo[4,3-b]pyridin-1-yl]-benzonitrile], in that order: 58 nM and 1000 to 10000 nM.
As to `C[C@@H]1COCCN1c1cc(-c2cccc(S(C)(=O)=O)c2)c2c(n1)c(-c1ccn[nH]1)nn2C` [Compound 76, (3R)-4-[7-(3-Methanesulfonylphenyl)-1-methyl-3-(1H-pyrazol-5-yl)-1H-pyrazolo[4,3-b]pyridin-5-yl]-3-methylmorpholine], the IC50 at ATR/ATRIP was 28 nM; in experiment [1] it was 100 to 1000 nM.
Taken in the same sequence, the figures for `COCc1ccc(-c2cc(N3CCOC[C@H]3C)nc3c(-c4cc[nH]n4)nn(C)c23)cc1` [Compound 51, (3R)-4-{7-[4-(Methoxymethyl)phenyl]-1-methyl-3-(1H-pyrazol-3-yl)-1H-pyrazolo[4,3-b]pyridin-5-yl}-3-methylmorpholine] were 1.2 nM and 100 to 1000 nM.
Taken in the same sequence, the figures for `CNC(=O)c1cc(N2CCOC[C@H]2C)nc2c(-c3cc[nH]n3)n[nH]c12` [Compound 28, 5-((R)-3-Methyl-morpholin-4-yl)-3-(1H-pyrazol-3-yl)-1H-pyrazolo[4,3-b]pyridine-7-carboxylic acid methylamide] were 5.3 nM and 100 to 1000 nM.
Consider `C[C@@H]1COCCN1c1cc(-c2ccnc3[nH]ccc23)c2nn(C)c(-c3cc[nH]n3)c2n1` [Compound 16, 2-Methyl-5-((R)-3-methyl-morpholin-4-yl)-3-(1H-pyrazol-3-yl)-7-(1H-pyrrolo[2,3-b]pyridin-4-yl)-2H-pyrazolo[4,3-b]pyridine], for which the IC50 against ATR/ATRIP was 67 nM; in experiment [1] it was 1000 to 10000 nM.
